Converted amounts (≈) assume the structure as drawn.
Key:
Format in all cases: cell-based
Enterococcus faecalis = assay: Broth microdilution MIC, 50 clinical isolates
Experimental: (§1) Minimal inhibitory concentration (MIC) values were determined by broth microdilution or agar dilution in accordance with guidelines from the Clinical and Laboratory Standards Institute (CLSI; (1) “Methods for Dilution Antimicrobial Susceptibility Tests for Bacteria That Grow Aerobically; Approved Standard; 11th ed.” CLSI standard M07-A11, 2018; (2) “Performance Standards for Antimicrobial Susceptibility Testing; Twenty-Eighth Informational Supplement,” CLSI document M100-S28, 2018; and (3) “Methods for Antimicrobial Susceptibility Testing of Anaerobic Bacteria; Approved Standard—Eighth Edition,” CLSI document M11-A8, 2012).
(§2) Tested aerobically by broth microdilution: • Escherichia coli, n=50 • Klebsiella spp., n=50 • Pseudomonas aeruginosa, n=50 • Streptococcus spp., n=50 • Staphylococcus aureus, n=50 • Enterococcus faecalis, n=50 • Enterobacter aerogenes, n=50 • Proteus mirabilis, n=50
(§3) Broth microdilution testing of aerobic bacteria was conducted in cation-adjusted Mueller Hinton broth (MHBII). For testing streptococci, lysed horse blood (LHB) was added to MHBII broth at a final concentration of 3%. Where LHB was used, it was added after filtering.
(§4) Broth microdilution susceptibility testing in 96-well microplates was conducted in accordance with CLSI methods (1) and (2). Automated liquid handlers were used to conduct serial dilutions and liquid transfers, including the Multidrop 384 (Labsystems, Helsinki, Finland), Biomek 2000, and the Biomek FX (Beckman Coulter, Fullerton, Calif.). All wells in columns 2 through 12 of a standard 96-well microdilution plate (Costar 3795) were filled with 150 μL of the appropriate diluent. Then, 300 μL of the test agents were added to the wells of column 1 of the plates at 100× the highest final concentration to be tested. Serial two-fold dilutions were made across the rows through column 11 using the Biomek 2000. The wells of column 12 contained no drug and served as the growth control wells. This plate served as the “mother plate” from which MIC assay plates or “daughter plates” were made.
(§5) The daughter plates were loaded with 190 μL per well of the appropriate medium using the Multidrop 384. The daughter plates were created using the Biomek FX which transferred 2 μL of drug solution from each well of a mother plate to each corresponding well of the daughter plate in a single step. A standardized inoculum of each test organism was prepared per CLSI methods (1) to equal a 0.5 McFarland standard, followed by a dilution of 1:20 for aerobes and 1:10 for anaerobes. The plates were then inoculated with 10 μL of the diluted inoculum using the Biomek 2000 from low to high drug concentration, resulting in a final concentration of approximately 5×10^5 CFU/mL per well. An un-inoculated plate was incubated in parallel for each medium for the purpose of assessing solubility of the drug in the test media.
(§6) Inoculated plates were stacked 3 or 4 high, covered with a sterile lid on the top plate, placed into boxes with CO2 planchets (streptococci) or plastic bags (all other isolates). Plates were incubated at 35° C. for 16-24 hr in ambient air for aerobes or for 42-48 hr in the anaerobic environment of the Bactron II anaerobe chamber (Sheldon Manufacturing Co.; Cornelius, Oreg.). Following incubation, the microplates were removed from the incubator and viewed from the bottom using a plate viewer. The MIC values were read and recorded as the lowest concentration of drug that inhibited visible growth of the organism as per CLSI methods (1) and (2).

[1] = system: Enterococcus faecalis clinical isolates; assay: MIC distribution against clinical isolates; conditions: 50 E. faecalis isolates
Source text: (§7) As used herein, “minimum inhibitory concentration” or “MIC” refers to the lowest concentration of an antimicrobial agent, for example, an antimicrobial agent as described herein, required to inhibit the growth of an organism.
(§8) Many susceptibility testing methods are known in the art and can be used as described herein (see, e.g., Jorgensen and Ferraro (2009) Clinical Infectious Diseases 49:1749-1755; and Maurer et al. (2017) Infectious Disease Reports 9:6839; the entire contents of each of the foregoing are incorporated herein by reference). For example, antimicrobial susceptibility can be determined using conventional culture based methods such as the broth or agar dilution test. In these dilution tests, the bacterial isolate of interest is inoculated onto different media that include serial dilutions of an antimicrobial agent, and incubated under appropriate conditions (e.g., overnight at 37° C.) to allow for growth to occur. Following the incubation period, the media is examined to determine bacterial growth. The lowest concentration of antibiotic that prevents growth represents the minimal inhibitory concentration (MIC). Broth dilution tests can be miniaturized and mechanized allowing for reproducibility and high throughput.

[2] = system: Staphylococcus aureus clinical isolates; assay: MIC distribution against clinical isolates; conditions: 50 S. aureus isolates
Source text: as §7, §8

Staphylococcus aureus = assay: Broth microdilution MIC, 50 clinical isolates (28 MRSA)
Experimental: as §1, §2, §3, §4, §5, §6

## Cc1onc(-c2ccccc2)c1C(=O)N[C@@H]1C(=O)N2[C@@H]1SC(C)(C)[C@@H]2C(=O)O [oxacillin, Oxacillin]
Enterococcus faecalis
  Mode: >16 µg/mL
Enterococcus faecalis; Enterococcus faecalis, read-out: MIC50
  MIC50: 16 µg/mL (≈ 39.9 µM)
Enterococcus faecalis; Enterococcus faecalis, read-out: MIC90
  MIC90: > 16 µg/mL
[1]; MIC 2 μg/mL
  Cumulative percentage of isolates inhibited at MIC: 2.0%
  Number of test isolates at MIC: 1
[1]; MIC 8 μg/mL
  Cumulative percentage of isolates inhibited at MIC: 16.0%
  Number of test isolates at MIC: 7
[1]; MIC 16 μg/mL
  Cumulative percentage of isolates inhibited at MIC: 54.0%
  Number of test isolates at MIC: 19
[1]; MIC >16 μg/mL
  Cumulative percentage of isolates inhibited at MIC: 100.0%
  Number of test isolates at MIC: 23
[2]; MIC 0.5 μg/mL
  Cumulative percentage of isolates inhibited at MIC: 28.0%
  Number of test isolates at MIC: 10
[2]; MIC 1 μg/mL
  Cumulative percentage of isolates inhibited at MIC: 42.0%
  Number of test isolates at MIC: 7
[2]; MIC 2 μg/mL
  Cumulative percentage of isolates inhibited at MIC: 44.0%
  Number of test isolates at MIC: 1
[2]; MIC 4 μg/mL
  Cumulative percentage of isolates inhibited at MIC: 48.0%
  Number of test isolates at MIC: 2
[2]; MIC 8 μg/mL
  Cumulative percentage of isolates inhibited at MIC: 50.0%
  Number of test isolates at MIC: 1
[2]; MIC >16 μg/mL
  Cumulative percentage of isolates inhibited at MIC: 100.0%
  Number of test isolates at MIC: 25
[2]; MIC […]
  Cumulative percentage of isolates inhibited at MIC: 8.0%
  Number of test isolates at MIC: 4
Staphylococcus aureus
  % R: 56%
  % S: 44%
  Mode: >16 µg/mL
Staphylococcus aureus; Staphylococcus aureus, read-out: MIC50
  MIC50: 8 µg/mL (≈ 19.9 µM)
Staphylococcus aureus; Staphylococcus aureus, read-out: MIC90
  MIC90: > 16 µg/mL

— patent US20210386367A1, “DEVICES AND SYSTEMS FOR GASTROINTESTINAL MICROBIOME DETECTION AND MANIPULATION” (Progenity, Inc., priority 2018, published 2021)
